# Biological target: Human Factor D (Homo sapiens (Human), UniProt P00746)
# Experiment: Human Factor D Assay
# Assay type: biochemical
# Conditions: not given
# Outline: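 First, compound at various concentrations is mixed with 80 nM (final) human serum Factor D in 50 mM Tris, 1M NaCl, pH 7.5 for 5 min at room temperature.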
# Human Factor D, sequence (P00746 26-253): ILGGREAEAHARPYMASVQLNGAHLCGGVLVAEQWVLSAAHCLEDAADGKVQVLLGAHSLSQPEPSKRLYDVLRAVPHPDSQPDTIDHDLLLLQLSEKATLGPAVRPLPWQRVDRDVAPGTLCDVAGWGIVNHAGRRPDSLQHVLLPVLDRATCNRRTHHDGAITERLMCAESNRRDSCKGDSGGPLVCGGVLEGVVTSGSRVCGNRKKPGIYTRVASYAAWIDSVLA
row,Compound,IC50
1,"CC(=O)c1cn(CC(=O)N2C[C@H](F)C[C@H]2C(=O)NCc2cccnc2)c2ccc(-c3ccnnc3)cc12 [Compound 59, (2S,4R)-1-(2-(3-acetyl-5-(pyridazin-4-yl)-1H-indol-1-yl)acetyl)-4-fluoro-N-(pyridin-3-ylmethyl) pyrrolidine-2-carboxamide]",1 to 10 µM

# Same assay, conditions: Human Factor D 80 nM, substrate Z-L-Lys-SBzl; read-out: IC50
row,Compound,IC50
1,"CC(=O)c1cn(CC(=O)N2C[C@H](F)C[C@H]2C(=O)Nc2nc(-c3ccc4c(c3)CCCC4)cs2)c2ccc(-c3ccnnc3)cc12 [Compound 54, (2S,4R)-1-(2-(3-acetyl-5-(pyridazin-4-yl)-1H-indol-1-yl)acetyl)-4-fluoro-N-(4-(5,6,7,8-tetrahydro-naphthalen-2-yl)thiazol-2-yl)pyrrolidine-2-carboxamide]",> 10 µM
2,"NC(=O)c1nn(CC(=O)N2C[C@H](F)C[C@H]2C(=O)Nc2nc(-c3ccc4c(c3)CCCC4)cs2)c2ccc(-c3ccnnc3)cc12 [Compound 55, 1-(2-((2S,4R)-4-fluoro-2-(4-(5,6,7,8-tetrahydro-naphthalen-2-yl)thiazol-2-ylcarbamoyl)pyrrolidin-1-yl)-2-oxoethyl)-5-(pyridazin-4-yl)-1H-indazole-3-carboxamide]",> 10 µM
3,CC(=O)c1cn(CC(=O)N2C[C@H](F)C[C@H]2C(=O)Nc2nc(-c3c(C)nc4sccn34)cs2)c2ccc(-c3ccnnc3)cc12 [Compound 57],> 10 µM
4,"Cc1nc2sccn2c1-c1csc(NC(=O)[C@@H]2C[C@@H](F)CN2C(=O)Cn2nc(C(N)=O)c3cc(-c4ccnnc4)ccc32)n1 [Compound 58, 1-(2-((2S,4R)-4-fluoro-2-(4-(6-methylimidazo[2,1-b]thiazol-5-yl)thiazol-2-ylcarbamoyl)pyrrolidin-1-yl)-2-oxoethyl)-5-(pyridazin-4-yl)-1H-indazole-3-carboxamide]",> 10 µM
5,CC(=O)c1cn(CC(=O)N2C[C@H](F)C[C@H]2C(=O)Nc2ccc(CNC(=O)OCC3c4ccccc4-c4ccccc43)cc2)c2ccc(-c3ccnnc3)cc12 [Compound 61],> 10 µM
6,"NC(=O)c1nn(CC(=O)N2C[C@H](F)C[C@H]2C(=O)NCc2cc(F)cc(Cl)c2)c2ccc(-c3ccnnc3)cc12 [Compound 62, 1-(2-((2S,4R)-2-(3-chloro-5-fluorobenzyl-carbamoyl)-4-fluoropyrrolidin-1-yl)-2-oxoethyl)-5-(pyridazin-4-yl)-1H-indazole-3-carboxamide]",< 1 µM
7,"CC(=O)c1cn(CC(=O)N2C[C@H](F)C[C@H]2C(=O)Nc2ccccc2N2CCOC2=O)c2ccc(-c3ccnnc3)cc12 [Compound 64, (2S,4R)-1-(2-(3-acetyl-5-(pyridazin-4-yl)-1H-indol-1-yl)acetyl)-4-fluoro-N-(2-(2-oxooxazolidin-3-yl)phenyl) pyrrolidine-2-carboxamide]",> 10 µM
8,"NC(=O)c1nn(CC(=O)N2C[C@H](F)C[C@H]2C(=O)Nc2ccccc2N2CCOC2=O)c2ccc(-c3ccnnc3)cc12 [Compound 65, 1-(2-((2S,4R)-4-fluoro-2-(2-(2-oxooxazolidin-3-yl)phenylcarbamoyl)pyrrolidin-1-yl)-2-oxoethyl)-5-(pyridazin-4-yl)-1H-indazole-3-carboxamide]",> 10 µM
9,"CC(=O)c1cn(CC(=O)N2C[C@H](F)C[C@H]2C(=O)Nc2cncc(Cl)c2)c2ccc(-c3ccnnc3)cc12 [Compound 66, (2S,4R)-1-(2-(3-acetyl-5-(pyridazin-4-yl)-1H-indol-1-yl)acetyl)-N-(5-chloropyridin-3-yl)-4-fluoropyrrolidine-2-carboxamide]",< 1 µM
10,"CC(=O)c1cn(CC(=O)N2C[C@H](F)C[C@H]2C(=O)Nc2cncc(Br)c2)c2ccc(-c3ccnnc3)cc12 [Compound 68, (2S,4R)-1-(2-(3-acetyl-5-(pyridazin-4-yl)-1H-indol-1-yl)acetyl)-N-(5-bromopyridin-3-yl)-4-fluoropyrrolidine-2-carboxamide]",< 1 µM
11,"NC(=O)c1nn(CC(=O)N2C[C@H](F)C[C@H]2C(=O)Nc2nnc(-c3ccc(Cl)c(Cl)c3)s2)c2ccc(-c3ccnnc3)cc12 [Compound 69, 1-(2-((2S,4R)-2-(5-(3,4-dichlorophenyl)-1,3,4-thiadiazol-2-ylcarbamoyl)-4-fluoropyrrolidin-1-yl)-2-oxoethyl)-5-(pyridazin-4-yl)-1H-indazole-3-carboxamide]",> 10 µM
12,"NCc1ccc(NC(=O)[C@@H]2C[C@@H](F)CN2C(=O)Cn2nc(C(N)=O)c3cc(-c4ccnnc4)ccc32)cc1 [Compound 70, 1-(2-((2S,4R)-2-(4-(aminomethyl)phenylcarbamoyl)-4-fluoropyrrolidin-1-yl)-2-oxoethyl)-5-(pyridazin-4-yl)-1H-indazole-3-carboxamide]",> 10 µM
13,"Cc1ccnn1-c1ccccc1NC(=O)[C@@H]1C[C@@H](F)CN1C(=O)Cn1nc(C(N)=O)c2cc(-c3ccnnc3)ccc21 [Compound 71, 1-(2-((2S,4R)-4-fluoro-2-(2-(5-methyl-1H-pyrazol-1-yl)phenylcarbamoyl)pyrrolidin-1-yl)-2-oxoethyl)-5-(pyridazin-4-yl)-1H-indazole-3-carboxamide]",> 10 µM
14,"CC(=O)c1cn(CC(=O)N2C[C@H](F)C[C@H]2C(=O)Nc2ccccc2-n2nccc2C)c2ccc(-c3ccnnc3)cc12 [Compound 72, (2S,4R)-1-(2-(3-acetyl-5-(pyridazin-4-yl)-1H-indol-1-yl)acetyl)-4-fluoro-N-(2-(5-methyl-1H-pyrazol-1-yl)phenyl) pyrrolidine-2-carboxamide]",> 10 µM
15,"NC(=O)c1nn(CC(=O)N2C[C@H](F)C[C@H]2C(=O)Nc2cccc(OCc3ccccc3)n2)c2ccc(-c3ccnnc3)cc12 [Compound 73, 1-(2-((2S,4R)-2-(6-(benzyloxy)pyridin-2-ylcarbamoyl)-4-fluoropyrrolidin-1-yl)-2-oxoethyl)-5-(pyridazin-4-yl)-1H-indazole-3-carboxamide]",> 10 µM
16,"CC(=O)c1cn(CC(=O)N2C[C@H](F)C[C@H]2C(=O)N[C@H]2CCCC[C@@H]2OCc2ccccc2)c2ccc(-c3ccnnc3)cc12 [Compound 74, (2S,4R)-1-(2-(3-acetyl-5-(pyridazin-4-yl)-1H-indol-1-yl)acetyl)-N-((1S,2S)-2-(benzyloxy)cyclohexyl)-4-fluoropyrrolidine-2-carboxamide]",> 10 µM
17,"CC(=O)c1cn(CC(=O)N2C[C@H](F)C[C@H]2C(=O)Nc2ccc3c(c2)OC(C)(C)C3)c2ccc(-c3ccnnc3)cc12 [Compound 75, (2S,4R)-1-(2-(3-acetyl-5-(pyridazin-4-yl)-1H-indol-1-yl)acetyl)-N-(2,2-dimethyl-2,3-dihydrobenzofuran-6-yl)-4-fluoropyrrolidine-2-carboxamide]",< 1 µM
18,"CC1(C)Cc2ccc(NC(=O)[C@@H]3C[C@@H](F)CN3C(=O)Cn3nc(C(N)=O)c4cc(-c5ccnnc5)ccc43)cc2O1 [Compound 76, 1-(2-((2S,4R)-2-(2,2-dimethyl-2,3-dihydrobenzofuran-6-ylcarbamoyl)-4-fluoropyrrolidin-1-yl)-2-oxoethyl)-5-(pyridazin-4-yl)-1H-indazole-3-carboxamide]",< 1 µM
19,"CC(=O)c1cn(CC(=O)N2C[C@H](F)C[C@H]2C(=O)N[C@H]2CCC[C@@H]2OCc2ccccc2)c2ccc(-c3ccnnc3)cc12 [Compound 77, (2S,4R)-1-(2-(3-acetyl-5-(pyridazin-4-yl)-1H-indol-1-yl)acetyl)-N-((1S,2S)-2-(benzyloxy)cyclopentyl)-4-fluoropyrrolidine-2-carboxamide]",> 10 µM
20,"NC(=O)c1nn(CC(=O)N2C[C@H](F)C[C@H]2C(=O)N[C@H]2CCCC[C@@H]2OCc2ccccc2)c2ccc(-c3ccnnc3)cc12 [Compound 78, 1-(2-((2S,4R)-2-((1S,2S)-2-(benzyloxy)cyclohexyl-carbamoyl)-4-fluoropyrrolidin-1-yl)-2-oxoethyl)-5-(pyridazin-4-yl)-1H-indazole-3-carboxamide]",> 10 µM
21,"CNC(=O)[C@@H]1C[C@@H](F)CN1C(=O)Cn1nc(C(N)=O)c2cc(-c3ccnnc3)ccc21 [Compound 79, 1-(2-((2S,4R)-4-fluoro-2-(methylcarbamoyl)pyrrolidin-1-yl)-2-oxoethyl)-5-(pyridazin-4-yl)-1H-indazole-3-carboxamide]",> 10 µM
22,"COc1ncc(-c2ccc3c(c2)c(C(C)=O)cn3CC(=O)N2[C@@H]3C[C@@H]3C[C@H]2C(=O)Nc2cccc(-c3ccccc3Cl)c2F)cn1 [Compound 80, (1R,3S,5R)-2-(2-(3-acetyl-5-(2-methoxypyrimidin-5-yl)-1H-indol-1-yl)acetyl)-N-(2′-chloro-2-fluorobiphenyl-3-yl)-2-azabicyclo[3.1.0] hexane-3-carboxamide]",< 1 µM
23,"COc1ncc(-c2ccc3c(c2)c(C(C)=O)cn3CC(=O)N2[C@@H]3C[C@@H]3C[C@H]2C(=O)Nc2cccc(Br)n2)cn1 [Compound 81, (1R,3S,5R)-2-(2-(3-acetyl-5-(2-methoxypyrimidin-5-yl)-1H-indol-1-yl)acetyl)-N-(6-bromopyridin-2-yl)-2-azabicyclo[3.1.0] hexane-3-carboxamide]",< 1 µM
24,"CC(=O)c1cn(CC(=O)N2C[C@H](F)C[C@H]2C(=O)Nc2cccc(Br)n2)c2ccc(-c3cnc(C#N)nc3)cc12 [Compound 82, (2S,4R)-1-(2-(3-acetyl-5-(2-cyanopyrimidin-5-yl)-1H-indol-1-yl)acetyl)-N-(6-bromopyridin-2-yl)-4-fluoropyrrolidine-2-carboxamide]",< 1 µM
25,"CC(=O)c1cn(CC(=O)N2C[C@H](F)C[C@H]2C(=O)Nc2cccc(Br)n2)c2ccc(-c3cnc(F)nc3)cc12 [Compound 83, (2S,4R)-1-(2-(3-acetyl-5-(2-fluoropyrimidin-5-yl)-1H-indol-1-yl)acetyl)-N-(6-bromopyridin-2-yl)-4-fluoropyrrolidine-2-carboxamide]",< 1 µM
26,"CC(=O)c1cn(CC(=O)N2C[C@H](F)C[C@H]2C(=O)Nc2cccc(Br)n2)c2ccc(-c3cnc(C)nc3)cc12 [Compound 84, (2S,4R)-1-(2-(3-acetyl-5-(2-methylpyrimidin-5-yl)-1H-indol-1-yl)acetyl)-N-(6-bromopyridin-2-yl)-4-fluoropyrrolidine-2-carboxamide]",< 1 µM
